Laboratory results: the supplement of paper PMC8612539
Values after ≈ are worked out from the molar mass of the structure shown.

System: Pasteurella multocida
Assay: minimum inhibitory concentration (MIC)
Procedure: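 Broth microdilution MIC (Sensititre BOPO7F bovine plate, CLSI methods) of 19 antimicrobials against field isolates of P. multocida, M. haemolytica, H. somni (deep nasopharyngeal swabs) and E. coli, Enterococcus spp. (rectal swabs) from weaned dairy heifers. Incubation 16-24 h at 35 C. MIC is the lowest concentration preventing visible growth. Values with <= or > lie at the tested range limits. Trimethoprim-sulfamethoxazole is given as the trimethoprim component of a 1:19 mixture.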

CNC(C)C1CCC(N)C(OC2C(N)CC(N)C(OC3OCC(C)(O)C(NC)C3O)C2O)O1 (stereo not given) [Gentamicin]
Settings | minimum inhibitory concentration [µg/mL]
isolate (source animal id): 10 | 4 (≈ 8.38 µM)
isolate (source animal id): 11 | 2 (≈ 4.19 µM)
isolate (source animal id): 12 | 4 (≈ 8.38 µM)
isolate (source animal id): 19 | 4 (≈ 8.38 µM)
isolate (source animal id): 23 | 4 (≈ 8.38 µM)
isolate (source animal id): 26 | 4 (≈ 8.38 µM)
isolate (source animal id): 98 | 4 (≈ 8.38 µM)
isolate (source animal id): 104 | 2 (≈ 4.19 µM)
isolate (source animal id): 115 | 4 (≈ 8.38 µM)
isolate (source animal id): 117 | 4 (≈ 8.38 µM)
isolate (source animal id): 118 | 4 (≈ 8.38 µM)
isolate (source animal id): 121 | 4 (≈ 8.38 µM)
isolate (source animal id): 124 | 4 (≈ 8.38 µM)
isolate (source animal id): 125 | 4 (≈ 8.38 µM)
isolate (source animal id): 128 | 4 (≈ 8.38 µM)
isolate (source animal id): 131 | 16 (≈ 33.5 µM)
isolate (source animal id): 135 | 8 (≈ 16.8 µM)
isolate (source animal id): 136 | 4 (≈ 8.38 µM)
isolate (source animal id): 140 | 4 (≈ 8.38 µM)
isolate (source animal id): 144 | 4 (≈ 8.38 µM)
isolate (source animal id): 146 | 4 (≈ 8.38 µM)
isolate (source animal id): 150 | 4 (≈ 8.38 µM)
isolate (source animal id): 151 | 4 (≈ 8.38 µM)
isolate (source animal id): 153 | 4 (≈ 8.38 µM)
isolate (source animal id): 155 | 4 (≈ 8.38 µM)
isolate (source animal id): 157 | 4 (≈ 8.38 µM)
isolate (source animal id): 160 | 4 (≈ 8.38 µM)
isolate (source animal id): 164 | 4 (≈ 8.38 µM)
isolate (source animal id): 165 | 4 (≈ 8.38 µM)
isolate (source animal id): 167 | 4 (≈ 8.38 µM)
isolate (source animal id): 168 | 4 (≈ 8.38 µM)
isolate (source animal id): 169 | 4 (≈ 8.38 µM)
isolate (source animal id): 170 | 4 (≈ 8.38 µM)
isolate (source animal id): 171 | 4 (≈ 8.38 µM)
isolate (source animal id): 172 | 4 (≈ 8.38 µM)
isolate (source animal id): 173 | 4 (≈ 8.38 µM)
isolate (source animal id): 174 | 4 (≈ 8.38 µM)
isolate (source animal id): 175 | 4 (≈ 8.38 µM)
isolate (source animal id): 176 | 4 (≈ 8.38 µM)
isolate (source animal id): 177 | 4 (≈ 8.38 µM)
isolate (source animal id): 178 | 4 (≈ 8.38 µM)
isolate (source animal id): 179 | 4 (≈ 8.38 µM)
isolate (source animal id): 182 | 4 (≈ 8.38 µM)
isolate (source animal id): 192 | 4 (≈ 8.38 µM)
isolate (source animal id): 193 | 4 (≈ 8.38 µM)
isolate (source animal id): 195 | 4 (≈ 8.38 µM)
isolate (source animal id): 196 | 4 (≈ 8.38 µM)
isolate (source animal id): 197 | 4 (≈ 8.38 µM)
isolate (source animal id): 198 | 4 (≈ 8.38 µM)
isolate (source animal id): 199 | 4 (≈ 8.38 µM)
isolate (source animal id): 200 | 4 (≈ 8.38 µM)
isolate (source animal id): 201 | 4 (≈ 8.38 µM)
isolate (source animal id): 203 | 4 (≈ 8.38 µM)
isolate (source animal id): 204 | 4 (≈ 8.38 µM)
isolate (source animal id): 205 | 4 (≈ 8.38 µM)
isolate (source animal id): 206 | 4 (≈ 8.38 µM)
isolate (source animal id): 207 | 4 (≈ 8.38 µM)
isolate (source animal id): 208 | 4 (≈ 8.38 µM)
isolate (source animal id): 209 | 4 (≈ 8.38 µM)
isolate (source animal id): 210 | 4 (≈ 8.38 µM)
isolate (source animal id): 213 | 4 (≈ 8.38 µM)
isolate (source animal id): 216 | 4 (≈ 8.38 µM)
isolate (source animal id): 223 | 4 (≈ 8.38 µM)
isolate (source animal id): 227 | 2 (≈ 4.19 µM)
isolate (source animal id): 229 | 2 (≈ 4.19 µM)
isolate (source animal id): 233 | 4 (≈ 8.38 µM)
isolate (source animal id): 234 | 4 (≈ 8.38 µM)
isolate (source animal id): 237 | 4 (≈ 8.38 µM)
isolate (source animal id): 241 | 4 (≈ 8.38 µM)
isolate (source animal id): 245 | 4 (≈ 8.38 µM)
isolate (source animal id): 247 | 4 (≈ 8.38 µM)
isolate (source animal id): 250 | 2 (≈ 4.19 µM)
isolate (source animal id): 254 | 4 (≈ 8.38 µM)
isolate (source animal id): 255 | 4 (≈ 8.38 µM)
isolate (source animal id): 258 | 4 (≈ 8.38 µM)
isolate (source animal id): 261 | 2 (≈ 4.19 µM)
isolate (source animal id): 262 | 4 (≈ 8.38 µM)
isolate (source animal id): 269 | 4 (≈ 8.38 µM)
isolate (source animal id): 270 | 4 (≈ 8.38 µM)
isolate (source animal id): 274 | 4 (≈ 8.38 µM)
isolate (source animal id): 275 | 4 (≈ 8.38 µM)
isolate (source animal id): 276 | 4 (≈ 8.38 µM)
isolate (source animal id): 277 | 4 (≈ 8.38 µM)
isolate (source animal id): 278 | 4 (≈ 8.38 µM)
isolate (source animal id): 279 | 4 (≈ 8.38 µM)
isolate (source animal id): 280 | 4 (≈ 8.38 µM)
isolate (source animal id): 284 | 8 (≈ 16.8 µM)
isolate (source animal id): 285 | 2 (≈ 4.19 µM)
isolate (source animal id): 287 | 2 (≈ 4.19 µM)
isolate (source animal id): 290 | 4 (≈ 8.38 µM)
isolate (source animal id): 294 | 4 (≈ 8.38 µM)
isolate (source animal id): 295 | 2 (≈ 4.19 µM)
isolate (source animal id): 296 | 2 (≈ 4.19 µM)
isolate (source animal id): 307 | 4 (≈ 8.38 µM)
isolate (source animal id): 310 | 4 (≈ 8.38 µM)
isolate (source animal id): 311 | 4 (≈ 8.38 µM)
isolate (source animal id): 312 | ≤ 1
isolate (source animal id): 313 | 2 (≈ 4.19 µM)
isolate (source animal id): 315 | 4 (≈ 8.38 µM)
isolate (source animal id): 316 | 4 (≈ 8.38 µM)

NC[C@@H]1O[C@H](O[C@H]2[C@@H](O)[C@H](O[C@@H]3[C@@H](O)[C@H](N)C[C@H](N)[C@H]3O[C@H]3O[C@H](CN)[C@@H](O)[C@H](O)[C@H]3N)O[C@@H]2CO)[C@H](N)[C@@H](O)[C@@H]1O [Neomycin]
Settings | minimum inhibitory concentration [µg/mL]
isolate (source animal id): 10 | > 32
isolate (source animal id): 11 | > 32
isolate (source animal id): 12 | > 32
isolate (source animal id): 19 | > 32
isolate (source animal id): 23 | > 32
isolate (source animal id): 26 | > 32
isolate (source animal id): 98 | > 32
isolate (source animal id): 104 | > 32
isolate (source animal id): 115 | 32 (≈ 52.1 µM)
isolate (source animal id): 117 | > 32
isolate (source animal id): 118 | > 32
isolate (source animal id): 121 | > 32
isolate (source animal id): 124 | > 32
isolate (source animal id): 125 | > 32
isolate (source animal id): 128 | > 32
isolate (source animal id): 131 | > 32
isolate (source animal id): 135 | > 32
isolate (source animal id): 136 | > 32
isolate (source animal id): 140 | > 32
isolate (source animal id): 144 | > 32
isolate (source animal id): 146 | > 32
isolate (source animal id): 150 | > 32
isolate (source animal id): 151 | 32 (≈ 52.1 µM)
isolate (source animal id): 153 | > 32
isolate (source animal id): 155 | > 32
isolate (source animal id): 157 | > 32
isolate (source animal id): 160 | 32 (≈ 52.1 µM)
isolate (source animal id): 164 | 32 (≈ 52.1 µM)
isolate (source animal id): 165 | 32 (≈ 52.1 µM)
isolate (source animal id): 167 | > 32
isolate (source animal id): 168 | > 32
isolate (source animal id): 169 | > 32
isolate (source animal id): 170 | > 32
isolate (source animal id): 171 | > 32
isolate (source animal id): 172 | > 32
isolate (source animal id): 173 | > 32
isolate (source animal id): 174 | > 32
isolate (source animal id): 175 | > 32
isolate (source animal id): 176 | > 32
isolate (source animal id): 177 | 16 (≈ 26 µM)
isolate (source animal id): 178 | > 32
isolate (source animal id): 179 | > 32
isolate (source animal id): 182 | > 32
isolate (source animal id): 192 | > 32
isolate (source animal id): 193 | 16 (≈ 26 µM)
isolate (source animal id): 195 | 32 (≈ 52.1 µM)
isolate (source animal id): 196 | 8 (≈ 13 µM)
isolate (source animal id): 197 | > 32
isolate (source animal id): 198 | > 32
isolate (source animal id): 199 | > 32
isolate (source animal id): 200 | > 32
isolate (source animal id): 201 | > 32
isolate (source animal id): 203 | 32 (≈ 52.1 µM)
isolate (source animal id): 204 | > 32
isolate (source animal id): 205 | > 32
isolate (source animal id): 206 | > 32
isolate (source animal id): 207 | > 32
isolate (source animal id): 208 | > 32
isolate (source animal id): 209 | 32 (≈ 52.1 µM)
isolate (source animal id): 210 | > 32
isolate (source animal id): 213 | > 32
isolate (source animal id): 216 | > 32
isolate (source animal id): 223 | > 32
isolate (source animal id): 227 | > 32
isolate (source animal id): 229 | > 32
isolate (source animal id): 233 | > 32
isolate (source animal id): 234 | > 32
isolate (source animal id): 237 | > 32
isolate (source animal id): 241 | > 32
isolate (source animal id): 245 | > 32
isolate (source animal id): 247 | > 32
isolate (source animal id): 250 | > 32
isolate (source animal id): 254 | > 32
isolate (source animal id): 255 | > 32
isolate (source animal id): 258 | > 32
isolate (source animal id): 261 | > 32
isolate (source animal id): 262 | > 32
isolate (source animal id): 269 | > 32
isolate (source animal id): 270 | > 32
isolate (source animal id): 274 | > 32
isolate (source animal id): 275 | > 32
isolate (source animal id): 276 | > 32
isolate (source animal id): 277 | > 32
isolate (source animal id): 278 | > 32
isolate (source animal id): 279 | > 32
isolate (source animal id): 280 | > 32
isolate (source animal id): 284 | > 32
isolate (source animal id): 285 | > 32
isolate (source animal id): 287 | > 32
isolate (source animal id): 290 | > 32
isolate (source animal id): 294 | > 32
isolate (source animal id): 295 | > 32
isolate (source animal id): 296 | > 32
isolate (source animal id): 307 | > 32
isolate (source animal id): 310 | > 32
isolate (source animal id): 311 | > 32
isolate (source animal id): 312 | > 32
isolate (source animal id): 313 | > 32
isolate (source animal id): 315 | > 32
isolate (source animal id): 316 | > 32
